# Results reported in patent US8445492B2, “Method for inhibiting growth of cancer cells and cell telomere and diseases of cell proliferation by using heteroannelated anthraquinone derivative compounds” (National Defense Medical Center, priority 2008, dated 2013).
# Where two headings read alike, the source gives them in different places.
# Tests used:
# Assay type in all cases: cell-based
# UO-31 = test: in vitro test at 1.0×10^−5 M, Kidney cancer cell; conditions: 1.0×10^−5 molal concentration (M)
# MCF7 = test: in vitro test at 1.0×10^−5 M, Breast cancer cell; conditions: 1.0×10^−5 molal concentration (M)
# T-47D = test: in vitro test at 1.0×10^−5 M, Breast cancer cell; conditions: 1.0×10^−5 molal concentration (M)
# MALME-3M = test: in vitro test at 1.0×10^−5 M, Skin cancer cell; conditions: 1.0×10^−5 molal concentration (M)
# HOP-92 = test: in vitro test at 1.0×10^−5 M, Non-small cell lung cancer cell; conditions: 1.0×10^−5 molal concentration (M)
# SK-MEL-2 = test: in vitro test at 1.0×10^−5 M, Skin cancer cell; conditions: 1.0×10^−5 molal concentration (M)
# IGROV1 = test: in vitro test at 1.0×10^−5 M, Ovary cancer cell; conditions: 1.0×10^−5 molal concentration (M)
# UACC-257 = test: in vitro test at 1.0×10^−5 M, Skin cancer cell; conditions: 1.0×10^−5 molal concentration (M)
# MDA-MB-468 = test: in vitro test at 1.0×10^−5 M, Breast cancer cell; conditions: 1.0×10^−5 molal concentration (M)
# MDA-MB-435 = test: in vitro test at 1.0×10^−5 M, Breast cancer cell; conditions: 1.0×10^−5 molal concentration (M)
# LOX IMV1 = test: in vitro test at 1.0×10^−5 M, Skin cancer cell; conditions: 1.0×10^−5 molal concentration (M)
# SN12C = test: in vitro test at 1.0×10^−5 M, Kidney cancer cell; conditions: 1.0×10^−5 molal concentration (M)
# U251 = test: in vitro test at 1.0×10^−5 M, CNS cancer cell
# HCC-2998 = test: in vitro test at 1.0×10^−5 M, Colorectal cancer cell; conditions: 1.0×10^−5 molal concentration (M)
# ACHN = test: in vitro test at 1.0×10^−5 M, Kidney cancer cell; conditions: 1.0×10^−5 molal concentration (M)
# OVCAR-4 = test: in vitro test at 1.0×10^−5 M, Ovary cancer cell; conditions: 1.0×10^−5 molal concentration (M)
# [1] = tested on: different cancer cell lines; test: in vitro test at 1.0×10^−5 M, summary over the cell lines; design: unit not given here; conditions: 1.0×10^−5 molal concentration (M)
# UACC-62 = test: in vitro test at 1.0×10^−5 M, Skin cancer cell; conditions: 1.0×10^−5 molal concentration (M)
# SF-539 = test: in vitro test at 1.0×10^−5 M, CNS cancer cell
# MOLT-4 = test: in vitro test at 1.0×10^−5 M, Blood cancer cell; conditions: 1.0×10^−5 molal concentration (M)
# [2] = 1.0×10^−5 molal concentration (M)
compound,measurement,setting,value
"CC1(C)Nc2ccc3c(c2N1)C(=O)c1ccccc1C3=O [No. 20, 2,2-Dimethyl-2,3-dihydro-1H-anthra[1,2-d]imidazole-6,11-dione]",inhibition effect on cancer cell line (Table 2 value),UO-31,30.65
same,inhibition effect on cancer cell line (Table 2 value),MCF7,83.58
same,inhibition effect on cancer cell line (Table 2 value),T-47D,82.96
same,inhibition effect on cancer cell line (Table 2 value),MALME-3M,155.47
same,inhibition effect on cancer cell line (Table 2 value),HOP-92,5.10
same,inhibition effect on cancer cell line (Table 2 value),SK-MEL-2,8.04
same,inhibition effect on cancer cell line (Table 2 value),IGROV1,−2.80
same,inhibition effect on cancer cell line (Table 2 value),UACC-257,118.22
same,inhibition effect on cancer cell line (Table 2 value),MDA-MB-468,77.25
same,inhibition effect on cancer cell line (Table 2 value),MDA-MB-435,124.56
same,inhibition effect on cancer cell line (Table 2 value),LOX IMV1,61.88
same,inhibition effect on cancer cell line (Table 2 value),SN12C,91.98
same,inhibition effect on cancer cell line (Table 2 value),U251,87.84
same,inhibition effect on cancer cell line (Table 2 value),HCC-2998,136.96
same,inhibition effect on cancer cell line (Table 2 value),ACHN,50.17
same,inhibition effect on cancer cell line (Table 2 value),OVCAR-4,80.14
same,Mean,[1],80.41
same,inhibition effect on cancer cell line (Table 2 value),UACC-62,67.58
same,inhibition effect on cancer cell line (Table 2 value),SF-539,93.56
same,inhibition effect on cancer cell line (Table 2 value),MOLT-4,116.41
"O=C1c2ccccc2C(=O)c2c1ccc1nccnc21 [No. 25, Naphthol-[2,3-f]quinoxaline-7,12-dione]",inhibition effect on cancer cell line (Table 2 value),UO-31,51.45
same,inhibition effect on cancer cell line (Table 2 value),MCF7,39.68
same,inhibition effect on cancer cell line (Table 2 value),T-47D,85.19
same,inhibition effect on cancer cell line (Table 2 value),MALME-3M,180.88
same,inhibition effect on cancer cell line (Table 2 value),SK-MEL-2,6.66
same,inhibition effect on cancer cell line (Table 2 value),IGROV1,3.44
same,inhibition effect on cancer cell line (Table 2 value),UACC-257,91.06
same,inhibition effect on cancer cell line (Table 2 value),MDA-MB-468,75.28
same,inhibition effect on cancer cell line (Table 2 value),MDA-MB-435,102.03
same,inhibition effect on cancer cell line (Table 2 value),LOX IMV1,44.18
same,inhibition effect on cancer cell line (Table 2 value),SN12C,64.65
same,inhibition effect on cancer cell line (Table 2 value),U251; [2],63.47
same,inhibition effect on cancer cell line (Table 2 value),HCC-2998,−7.15
same,inhibition effect on cancer cell line (Table 2 value),ACHN,46.52
same,inhibition effect on cancer cell line (Table 2 value),OVCAR-4,94.22
same,Mean,[1],69.36
same,inhibition effect on cancer cell line (Table 2 value),UACC-62,90.47
same,inhibition effect on cancer cell line (Table 2 value),SF-539; [2],40.72
same,inhibition effect on cancer cell line (Table 2 value),MOLT-4,22.91
